# According to patent US20230324400A1, “MULTIPLEXED PROTEOMICS AND PHOSPHOPROTEOMICS” (The General Hospital Corporation, priority 2015, published 2023):
# Tests used:
# Assay type in all cases: cell-based
# [1] = tested on: H3122 cell line (NSCLC, EML4-ALK fusion); assay: Ceritinib sensitivity (IC50) of parental H3122 cell line; conditions: Homo sapiens, NCI-H3122; ALK-positive H3122 parental cell line
# Method: (§1) In the particular study reported here, resistance to the small molecule ALK inhibitor Ceritinib was studied. The patient-derived cell line H3122 is a NSCLC line with an EML4-ALK fusion, and it is sensitive to Ceritinib. To simulate the clinical development of therapeutic resistance following initial treatment, this cell line was cultured over a period of 6 months with low but increasing doses of Ceritinib. […] These clones were expanded and comprise the cell lines LDKR1-4.
# (§2) FIG. 5 is a schematic diagram showing the development of the cell lines. The ALK-positive H3122 cell line, which is sensitive to the ALK inhibitor Ceritinib (ICso=53 nM), was treated with escalating doses of Ceritinib over a period 6 months. Resistant clones LDKR1-4 were obtained with ICso values in a range from 1494 nM to 3897 nM.
# [2] = tested on: LDKR1-4 cell lines (Ceritinib-resistant clones of H3122); assay: Ceritinib sensitivity (IC50) of resistant clones LDKR1-4
# Method: as §1, §2
# [3] = biological target: T1, ALK (Homo sapiens, UniProt Q9UM73); assay: Phosphoproteomic analysis of ALK phosphorylation after Ceritinib treatment, parental H3122; conditions: 300 nM Ceritinib, 24 hours
# T1 sequence (Q9UM73 with tags, fused parts or gaps): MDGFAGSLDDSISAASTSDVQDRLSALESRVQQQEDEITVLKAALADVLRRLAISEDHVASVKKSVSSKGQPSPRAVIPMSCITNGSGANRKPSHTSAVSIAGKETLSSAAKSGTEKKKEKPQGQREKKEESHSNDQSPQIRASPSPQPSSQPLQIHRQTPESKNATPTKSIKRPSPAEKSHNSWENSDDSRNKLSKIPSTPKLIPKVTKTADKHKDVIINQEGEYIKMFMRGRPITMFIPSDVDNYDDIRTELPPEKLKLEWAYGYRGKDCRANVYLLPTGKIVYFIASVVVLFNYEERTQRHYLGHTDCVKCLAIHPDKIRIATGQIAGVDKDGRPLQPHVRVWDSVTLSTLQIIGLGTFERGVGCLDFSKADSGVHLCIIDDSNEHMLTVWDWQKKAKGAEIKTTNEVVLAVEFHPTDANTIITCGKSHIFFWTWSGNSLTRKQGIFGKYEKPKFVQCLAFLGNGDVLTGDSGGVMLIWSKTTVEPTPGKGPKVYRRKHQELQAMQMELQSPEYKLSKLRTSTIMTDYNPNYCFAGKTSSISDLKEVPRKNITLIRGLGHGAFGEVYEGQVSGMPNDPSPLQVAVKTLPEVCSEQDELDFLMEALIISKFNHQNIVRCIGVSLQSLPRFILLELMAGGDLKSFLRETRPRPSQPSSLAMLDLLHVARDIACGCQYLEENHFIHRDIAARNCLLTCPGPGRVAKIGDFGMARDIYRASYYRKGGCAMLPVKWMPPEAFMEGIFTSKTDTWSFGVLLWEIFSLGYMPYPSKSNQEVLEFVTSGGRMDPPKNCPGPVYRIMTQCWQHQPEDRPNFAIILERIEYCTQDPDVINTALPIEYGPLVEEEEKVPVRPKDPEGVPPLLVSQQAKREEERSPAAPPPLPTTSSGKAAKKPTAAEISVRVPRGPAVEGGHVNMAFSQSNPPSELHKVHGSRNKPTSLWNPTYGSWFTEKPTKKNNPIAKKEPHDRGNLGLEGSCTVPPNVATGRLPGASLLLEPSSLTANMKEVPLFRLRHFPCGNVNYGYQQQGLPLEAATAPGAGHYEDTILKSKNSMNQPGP
# Method: (§3) The H3122 parental and LDKR1-4 cell lines were each grown in culture with or without the addition of Ceritinib for 24 hours, and harvested cells were subsequently processed for both proteomic and phosphoproteomic analyses. Specifically, each of the cell lines was cultured in RPMI-1640 media supplemented with 10% FBS, 100 units/mL penicillin, and 100 μg/mL streptomycin. Cells were treated for 24 hours with 300 nM Ceritinib (also known as LDK378). Cells were collected, and the cell pellets were resuspended in mammalian lysis buffer and lysed by passage through a 21 gauge needle. The lysate was centrifuged at 15,000×g for 5 minutes at 4° C., and insoluble debris was discarded.
# (§4) The lysates were then prepared for mass spectrometry analysis. Samples were reduced with DTT, alkylated with iodoacetamide, and precipitated with methanol/chloroform. Protein was digested overnight at room temperature with endoproteinase Lys-C(obtained from Wako Chemicals, Richmond, VA) followed by digestion with sequencing-grade trypsin (obtained from Promega Corp., Madison, WI) for 6 hours at 37° C. Samples were quenched with 1% TFA and desalted using Sep-Pak C18 (SPE) cartridges (obtained from Waters Corp., Milford, MA). The peptide concentration of each sample was determined using a BCA assay. […]
# [4] = biological target: T1, ALK; assay: Phosphoproteomic analysis of ALK activity after Ceritinib treatment, resistant cell lines; conditions: LDKR1-4, 300 nM Ceritinib, 24 hours
# Method: as §3, §4
structure (smiles),measurement,setting,value
Cc1cc(Nc2ncc(Cl)c(Nc3ccccc3S(=O)(=O)C(C)C)n2)c(OC(C)C)cc1C1CCNCC1 [Ceritinib],IC50,[1],0.053 µM
same,IC50,"[2]; Homo sapiens, NCI-H3122, resistant clones LDKR1-4, obtained after 6 months of escalating doses of Ceritinib",1.49 to 3.9 µM
same,IC50 of resistant clones relative to parental sensitive cell line,[2]; four single resistant clones LDKR1-4 vs parental H3122,at least twenty times higher
same,"ALK Thr 1506/Tyr 1507/Ser 1509 phosphorylation, ratio to parental cell line with no drug",[3],decreasing fourfold upon drug treatment
same,"ALK Tyr 1078 phosphorylation, ratio to parental cell line with no drug",[3],decreased upon drug treatment
same,Inhibition of ALK activity in resistant cell lines,[4],continued to be effective at inhibiting ALK activity in at least three of the four resistant cell lines
